Source: US20230241226A1, “COMPOUNDS FOR TARGETED DEGRADATION OF CARRIER PROTEINS AND USES THEREOF” (CeMM - Forschungszentrum für Molekulare Medizin GmbH, priority 2019, published 2023)

Key:
Type in all cases: cell-based
[1] = target: T1, dTAG-HA SLC38A2 (Homo sapiens, UniProt Q96QD8+Q96SW2); experiment: Targeted degradation of dTAG-tagged SLC38A2 (western blot); settings: HAP1, 0.5 µM; for time to degradation of the glycosylated form (upper band) of dTAG-HA SLC38A2: time course
T1 construct: expressed in transfected cells
T1 sequence (Q96QD8 with tags, fused parts or gaps): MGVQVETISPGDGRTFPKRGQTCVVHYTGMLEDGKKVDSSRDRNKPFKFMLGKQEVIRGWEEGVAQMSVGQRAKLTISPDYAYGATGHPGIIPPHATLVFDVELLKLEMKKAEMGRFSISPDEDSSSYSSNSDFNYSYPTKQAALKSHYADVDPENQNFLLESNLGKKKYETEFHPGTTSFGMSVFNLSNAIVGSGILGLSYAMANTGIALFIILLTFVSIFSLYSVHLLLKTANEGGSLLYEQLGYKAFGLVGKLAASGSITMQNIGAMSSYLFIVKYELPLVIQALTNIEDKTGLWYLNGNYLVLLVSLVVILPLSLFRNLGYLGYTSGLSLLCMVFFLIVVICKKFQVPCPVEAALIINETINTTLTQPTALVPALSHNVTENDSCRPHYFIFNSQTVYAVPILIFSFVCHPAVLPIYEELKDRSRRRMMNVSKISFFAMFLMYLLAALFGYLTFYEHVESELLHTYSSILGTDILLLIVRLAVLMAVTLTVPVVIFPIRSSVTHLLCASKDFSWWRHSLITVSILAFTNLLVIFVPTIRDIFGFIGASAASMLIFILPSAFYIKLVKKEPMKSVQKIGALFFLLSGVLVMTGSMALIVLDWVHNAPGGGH
T1 sequence (Q96SW2 whole entry): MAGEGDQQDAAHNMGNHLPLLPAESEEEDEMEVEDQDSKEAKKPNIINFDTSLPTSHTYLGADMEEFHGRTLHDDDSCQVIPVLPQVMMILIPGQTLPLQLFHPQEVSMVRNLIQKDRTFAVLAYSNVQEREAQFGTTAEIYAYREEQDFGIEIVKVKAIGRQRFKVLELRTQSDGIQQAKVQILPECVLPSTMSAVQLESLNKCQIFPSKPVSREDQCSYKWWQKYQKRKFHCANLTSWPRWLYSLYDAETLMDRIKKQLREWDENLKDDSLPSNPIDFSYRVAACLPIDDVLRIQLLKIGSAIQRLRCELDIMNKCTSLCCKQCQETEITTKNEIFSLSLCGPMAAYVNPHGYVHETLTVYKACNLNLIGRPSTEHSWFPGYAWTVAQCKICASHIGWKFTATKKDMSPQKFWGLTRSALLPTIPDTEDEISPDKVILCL
T1 sequence (Q16531 whole entry partner): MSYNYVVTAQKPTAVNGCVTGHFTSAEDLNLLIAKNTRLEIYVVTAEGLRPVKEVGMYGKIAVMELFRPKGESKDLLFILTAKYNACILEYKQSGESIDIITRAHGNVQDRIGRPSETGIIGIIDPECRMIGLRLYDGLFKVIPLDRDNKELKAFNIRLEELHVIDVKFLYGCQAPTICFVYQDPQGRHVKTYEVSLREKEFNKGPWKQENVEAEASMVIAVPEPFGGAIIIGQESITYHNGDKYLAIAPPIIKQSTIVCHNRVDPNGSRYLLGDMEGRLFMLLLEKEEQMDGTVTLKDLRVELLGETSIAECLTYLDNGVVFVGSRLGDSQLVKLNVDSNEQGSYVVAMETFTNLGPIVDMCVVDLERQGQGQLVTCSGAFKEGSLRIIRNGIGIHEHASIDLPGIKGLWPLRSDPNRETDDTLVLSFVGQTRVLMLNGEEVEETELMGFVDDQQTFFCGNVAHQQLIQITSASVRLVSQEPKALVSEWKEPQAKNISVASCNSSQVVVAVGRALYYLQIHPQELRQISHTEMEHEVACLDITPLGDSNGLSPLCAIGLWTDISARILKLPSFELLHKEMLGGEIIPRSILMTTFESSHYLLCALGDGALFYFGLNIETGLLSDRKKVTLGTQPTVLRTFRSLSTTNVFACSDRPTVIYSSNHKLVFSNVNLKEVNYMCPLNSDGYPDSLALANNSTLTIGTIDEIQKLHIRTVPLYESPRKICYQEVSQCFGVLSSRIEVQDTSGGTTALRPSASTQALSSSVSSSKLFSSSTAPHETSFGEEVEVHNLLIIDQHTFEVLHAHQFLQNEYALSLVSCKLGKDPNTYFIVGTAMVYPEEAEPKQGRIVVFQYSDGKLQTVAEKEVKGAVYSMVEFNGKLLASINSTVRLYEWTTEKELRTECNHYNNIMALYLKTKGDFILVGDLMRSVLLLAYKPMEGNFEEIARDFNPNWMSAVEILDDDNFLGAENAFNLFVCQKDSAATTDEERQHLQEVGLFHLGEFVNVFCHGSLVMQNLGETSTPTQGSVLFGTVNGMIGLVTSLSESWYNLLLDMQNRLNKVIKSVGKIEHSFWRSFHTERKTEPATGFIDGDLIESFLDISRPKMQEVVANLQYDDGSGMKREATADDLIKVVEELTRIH
Experimental: (A) HAP1 cells expressing dTAG-HA SLC38A9, 38A2, or 38A1 were treated with 0.5 µM dTAG13 for 16, 24 or 48 hours.
(§1) SLC1A5, SLC2A1, SLC2A3, SLC16A1, SLC38A1, SLC38A2 were obtained as gateway-compatible pENTR/pDONR vectors from the Harvard PlasmID Repository. SLC39A7 was obtained from Dharmacon, GE Healthcare. The following vectors were synthesized by Genescript: SLC4A4, SLC7A3, SLC38A9, SLC25A1, SLC9A1, SLC9A2, SLC9A3, SLC9A4, SLC9A5, SLC9A6, SLC9A7, SLC9A8, and SLC9B2. SLC30A9, SLC33A1, SLC35B2, SLC25A26, and MTCH2 were a gift from the RESOLUTE consortium. cDNAs were transferred into gateway-compatible lentiviral expression vectors: pLX305 dTAG vectors (Addgene #91797/8) or pRRL Strep-HA (described previously43, EF1a promotor driven expression) using LR recombination (ThermoFisher Scientific). For the generation of lentiviral stable overexpression cells, HEK293T cells were transfected with psPAX2 (Addgene #12260) and pMD2.G (Addgene #12259) and expression vectors using polyethylenimine (PEI). 12 hours post transfection medium was replaced with fresh medium. The medium, containing the virus, was harvested 48 hours later, filtered (0.45 µm), supplemented with 5 µg/ml Polybrene (Hexadimethrine bromide, Sigma) and added to target cells. […]
(§2) For immunoblotting, whole cell extracts were prepared using RIPA lysis buffer (25 mM Tris/HCl pH 7.6, 150 mM NaCl, 1% NP-40, 1% sodium deoxycholate, 0.1% SDS, EDTA-free protease inhibitor (Roche) and phosphatase inhibitors 2+3 (Sigma- Aldrich)). […] Protein extracts were quantified and normalized using the BCA assay (Thermo Scientific). […]
SLCs were ectopically expressed as fusions to a mutated FKBP domain, also known as the dTAG system. […] Each of the tested SLCs was stably expressed in HAP1 cells, and subcellular localization was assessed by immunofluorescence microscopy (FIG. 1B). […]

[2] = target: T2, dTAG-HA SLC2A1 (Homo sapiens, UniProt P11166+Q96SW2); experiment: Targeted degradation of dTAG-tagged SLC2A1 (western blot); settings: HAP1, 0.5 µM, 24, 48 or 72 hours
T2 construct: expressed in transfected cells
Experimental: (§3) (C)HAP1 cells expressing dTAG-HA SLC1A5, 2A3, 30A9, 35B2, MTCH2, and 33A1 were treated for 24 hours with 0.5 µM of dTAG7 or dTAG13, as indicated. HAP1 cells expressing dTAG-HA SLC2A1 and 16A1 were treated for 24 hrs with 0.5 µM of dTAG7. HAP1 cell lines expressing dTAG-HA SLC39A7, dTAG-HA SLC4A4, and SLC7A3-dTAG-HA were treated for 48 hrs with 0.5 µM of dTAG13.
(§4) SLC1A5, SLC2A1, SLC2A3, SLC16A1, SLC38A1, SLC38A2 were obtained as gateway-compatible pENTR/pDONR vectors from the Harvard PlasmID Repository. SLC39A7 was obtained from Dharmacon, GE Healthcare. The following vectors were synthesized by Genescript: SLC4A4, SLC7A3, SLC38A9, SLC25A1, SLC9A1, SLC9A2, SLC9A3, SLC9A4, SLC9A5, SLC9A6, SLC9A7, SLC9A8, and SLC9B2. […]
as §2
(§5) SLCs were ectopically expressed as fusions to a mutated FKBP domain, also known as the dTAG system. […]

[3] = target: T3, dTAG-HA SLC2A3 (Homo sapiens, UniProt P11169+Q96SW2); experiment: Targeted degradation of dTAG-tagged SLC2A3 (western blot)
T3 construct: expressed in transfected cells
T3 sequence (P11169 with tags, fused parts or gaps): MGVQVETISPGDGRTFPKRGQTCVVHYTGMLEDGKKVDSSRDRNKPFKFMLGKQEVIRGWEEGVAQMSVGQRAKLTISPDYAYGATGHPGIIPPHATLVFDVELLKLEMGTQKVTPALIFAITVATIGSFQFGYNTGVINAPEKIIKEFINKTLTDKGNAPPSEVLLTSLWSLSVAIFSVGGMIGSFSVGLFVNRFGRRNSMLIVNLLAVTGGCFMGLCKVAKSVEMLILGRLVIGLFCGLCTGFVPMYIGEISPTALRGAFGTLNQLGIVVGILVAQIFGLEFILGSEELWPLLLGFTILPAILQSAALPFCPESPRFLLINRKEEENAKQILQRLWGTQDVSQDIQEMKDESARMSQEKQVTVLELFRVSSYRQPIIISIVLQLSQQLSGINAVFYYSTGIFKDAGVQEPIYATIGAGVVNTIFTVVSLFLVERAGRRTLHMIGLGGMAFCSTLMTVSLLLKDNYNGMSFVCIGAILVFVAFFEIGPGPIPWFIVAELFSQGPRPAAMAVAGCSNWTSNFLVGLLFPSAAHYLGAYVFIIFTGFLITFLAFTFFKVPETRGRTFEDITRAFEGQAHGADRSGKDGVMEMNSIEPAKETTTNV
T3 sequence (Q96SW2 whole entry): as the sequence (Q96SW2 whole entry) above
T3 sequence (Q16531 whole entry partner): as the sequence (Q16531 whole entry partner) above
Experimental: as §3, §1, §2, §5

[4] = target: T4, dTAG-HA SLC1A5 (Homo sapiens, UniProt Q15758+Q96SW2); experiment: Targeted degradation of dTAG-tagged SLC1A5 (western blot); settings: 0.5 µM
T4 construct: expressed in transfected cells; also LOVO, SW620, CAKI, SW480
T4 sequence (Q15758 with tags, fused parts or gaps): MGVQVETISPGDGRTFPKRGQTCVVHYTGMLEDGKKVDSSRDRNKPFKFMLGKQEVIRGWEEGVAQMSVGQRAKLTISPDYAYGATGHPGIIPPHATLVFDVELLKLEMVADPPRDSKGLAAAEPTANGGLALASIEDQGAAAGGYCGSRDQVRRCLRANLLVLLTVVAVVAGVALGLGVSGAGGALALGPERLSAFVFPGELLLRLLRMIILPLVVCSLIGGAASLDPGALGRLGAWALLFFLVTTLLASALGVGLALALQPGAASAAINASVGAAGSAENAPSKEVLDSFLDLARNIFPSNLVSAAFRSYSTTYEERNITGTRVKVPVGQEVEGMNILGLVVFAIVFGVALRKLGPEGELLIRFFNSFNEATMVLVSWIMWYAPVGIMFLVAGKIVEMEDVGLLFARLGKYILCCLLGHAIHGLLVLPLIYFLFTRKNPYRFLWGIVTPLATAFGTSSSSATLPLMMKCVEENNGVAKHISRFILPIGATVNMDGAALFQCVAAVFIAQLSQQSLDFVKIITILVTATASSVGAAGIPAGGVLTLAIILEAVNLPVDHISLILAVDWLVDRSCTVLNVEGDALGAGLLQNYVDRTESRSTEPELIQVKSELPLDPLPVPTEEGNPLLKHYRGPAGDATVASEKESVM
T4 sequence (Q96SW2 whole entry): as the sequence (Q96SW2 whole entry) above
T4 sequence (Q16531 whole entry partner): as the sequence (Q16531 whole entry partner) above
Experimental: as §3, §4, §2, §5

[5] = target: T5, Strep/HA SLC9A4 (Homo sapiens, UniProt Q6AI14); experiment: Selectivity across SLC9 family: degradation of exogenous Strep/HA SLC9A4; settings: HAP1; 250 or 750 nM; 16 hours
T5 construct: expressed in transfected cells; host or cells: HAP1 (lentiviral, pRRL Strep-HA; cDNA synthesized by Genescript)
Experimental: (§6) (E) Selectivity of d9A1-2 was tested across HAP1 cell lines expressing Strep/HASLC9A1, 9A4, 9A5, 9A8, 9A2, 9B2, 9A6, 9A9, and 9A3. Cells were treated with varying concentrations of d9A1-2 for 16 hours, after which degradation of the exogenous SLCs was monitored.
(§7) SLC1A5, SLC2A1, SLC2A3, SLC16A1, SLC38A1, SLC38A2 were obtained as gateway-compatible pENTR/pDONR vectors from the Harvard PlasmID Repository. SLC39A7 was obtained from Dharmacon, GE Healthcare. The following vectors were synthesized by Genescript: SLC4A4, SLC7A3, SLC38A9, SLC25A1, SLC9A1, SLC9A2, SLC9A3, SLC9A4, SLC9A5, SLC9A6, SLC9A7, SLC9A8, and SLC9B2. SLC30A9, SLC33A1, SLC35B2, SLC25A26, and MTCH2 were a gift from the RESOLUTE consortium. cDNAs were transferred into gateway-compatible lentiviral expression vectors: pLX305 dTAG vectors (Addgene #91797/8) or pRRL Strep-HA (described previously43, EF1a promotor driven expression) using LR recombination (ThermoFisher Scientific). […]
as §2

[6] = target: T6, Strep/HA SLC9A2 (Homo sapiens, UniProt Q9UBY0); experiment: Selectivity across SLC9 family: degradation of exogenous Strep/HA SLC9A2; settings: HAP1; 250 or 750 nM; 16 hours
T6 construct: expressed in transfected cells; host or cells: HAP1 (lentiviral, pRRL Strep-HA; cDNA synthesized by Genescript)
T6 sequence (Q9UBY0 whole entry): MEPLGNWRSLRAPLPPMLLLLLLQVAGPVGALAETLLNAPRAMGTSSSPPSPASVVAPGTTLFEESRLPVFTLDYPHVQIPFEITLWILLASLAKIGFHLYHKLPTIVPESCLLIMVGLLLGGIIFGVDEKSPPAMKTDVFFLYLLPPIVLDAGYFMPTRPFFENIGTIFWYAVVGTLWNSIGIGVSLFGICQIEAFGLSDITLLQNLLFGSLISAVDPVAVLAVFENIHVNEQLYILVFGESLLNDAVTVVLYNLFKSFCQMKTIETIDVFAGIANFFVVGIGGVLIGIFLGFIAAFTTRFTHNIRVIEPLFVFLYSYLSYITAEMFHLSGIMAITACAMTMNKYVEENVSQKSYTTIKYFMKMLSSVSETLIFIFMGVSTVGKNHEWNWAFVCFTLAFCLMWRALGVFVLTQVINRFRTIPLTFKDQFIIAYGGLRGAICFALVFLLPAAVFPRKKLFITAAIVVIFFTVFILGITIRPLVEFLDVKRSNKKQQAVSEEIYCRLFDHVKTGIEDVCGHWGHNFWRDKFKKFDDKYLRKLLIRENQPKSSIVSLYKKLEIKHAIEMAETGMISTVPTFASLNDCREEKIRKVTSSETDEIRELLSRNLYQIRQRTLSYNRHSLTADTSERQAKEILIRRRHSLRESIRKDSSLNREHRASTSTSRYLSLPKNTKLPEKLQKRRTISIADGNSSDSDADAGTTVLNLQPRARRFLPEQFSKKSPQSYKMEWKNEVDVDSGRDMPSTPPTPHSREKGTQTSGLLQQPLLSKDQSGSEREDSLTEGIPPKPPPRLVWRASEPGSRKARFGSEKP
Experimental: as §6, §7, §2

Row | reversibility of degradation of the target SLC [2] | initiation of degradation (time course) ([3]; HAP1, dTAG-HA SLC2A3, 0.5 µM) [h] | initiation of degradation (time course) ([4]; HAP1, dTAG-HA SLC1A5) [h] | degradation of exogenous SLC9A4 [5] | degradation of exogenous SLC9A2 [6] | Structure (SMILES) | time to degradation of the glycosylated form (upper band) of dTAG-HA SLC38A2 [1] | degradation of the target SLC ([1]; dTAG-HA SLC38A2, 16, 24 or 48 hours) | degradation of dTAG-HA SLC2A3 ([3]; HAP1, LS180 and HCT15 cells, 0.5 µM, 72 hours) | degradation of SLC2A3 tagged on the N- or C-terminus with dTAG-HA ([3]; two HAP1 cell lines, 24 hours) | degradation of dTAG-HA SLC1A5 ([4]; LOVO, SW620, CAKI and SW480 cell lines, 48 hours)
1 | reversible degradation | ≤ 6 | ≤ 6 |  |  | CC[C@H](C(=O)N1CCCC[C@H]1C(=O)O[C@H](CCc1ccc(OC)c(OC)c1)c1ccccc1OCC(=O)NCCCOCCOCCOCCCNC(=O)COc1cccc2c1C(=O)N(C1CCC(=O)NC1=O)C2=O)c1cc(OC)c(OC)c(OC)c1 (some centres unmarked) [dTAG7] | within five hours |  |  |  | 
2 |  |  |  | prompted degradation | prompted degradation | Cc1cc(-c2ccc(C(=O)NCCOCCOCCOCCOCCNc3cccc4c3C(=O)N(C3CCC(=O)NC3=O)C4=O)cc2N2CCC(c3[nH]cnc3C)CC2)ccc1F (centres unmarked) [d9A1-2] |  |  |  |  | 
3 |  |  |  |  |  | CC[C@H](C(=O)N1CCCC[C@H]1C(=O)O[C@H](CCc1ccc(OC)c(OC)c1)c1ccccc1OCC(=O)NCCCCCCOc1cccc2c1C(=O)N(C1CCC(=O)NC1=O)C2=O)c1cc(OC)c(OC)c(OC)c1 (some centres unmarked) [dTAG13] | within five hours | Near-complete degradation | completely degraded | degraded in both | degradation was observed
